Measured values: patent publication US20250360143A1, “COMPOSITIONS AND METHODS FOR PHA[…] OF STROKE AND […] REPERFUSION INJURY” (priority 2022, published 2025)
Entries after “also recorded” stand apart in the source; their conditions may differ. Structures can show the parent of a compound that is named as a salt. Where two headings read alike, the source gives them in different places.

Tests used:
[1] = system: 45 receptors, channels and transporters; experiment: Off-target binding at 45 receptors, channels and transporters (NIMH PDSP); details: at 10 μM
[2] = system: C57B/6 mice, transient focal cerebral ischemia (MCAo); details: mouse, in vivo
mP2X4R = biological target: T1, mP2X4R (Mus musculus, UniProt Q9JJX6); details: compared with hP2X4R; cited from earlier work
T1 sequence (Q9JJX6 1-388): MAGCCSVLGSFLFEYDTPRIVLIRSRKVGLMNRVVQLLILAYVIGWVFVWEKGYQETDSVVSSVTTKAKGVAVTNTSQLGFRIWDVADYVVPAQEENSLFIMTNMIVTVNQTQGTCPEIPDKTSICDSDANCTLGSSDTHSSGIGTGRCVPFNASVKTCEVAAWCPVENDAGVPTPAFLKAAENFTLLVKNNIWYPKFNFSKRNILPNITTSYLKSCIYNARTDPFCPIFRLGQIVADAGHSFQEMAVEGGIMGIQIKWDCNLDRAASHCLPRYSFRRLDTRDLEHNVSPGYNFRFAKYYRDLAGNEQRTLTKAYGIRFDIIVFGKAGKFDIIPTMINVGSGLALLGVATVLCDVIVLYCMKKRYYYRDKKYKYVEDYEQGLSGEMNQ

mouse = details: cited from earlier work
H2 histamine receptor = biological target: T2, H2 histamine receptor (Homo sapiens, UniProt P25021); experiment: Off-target binding, NIMH Psychoactive Drug Screening program; details: read-out: inhibition of binding at H2 histamine receptor
T2 construct: NIMH Psychoactive Drug Screening program
T2 sequence (P25021 whole entry): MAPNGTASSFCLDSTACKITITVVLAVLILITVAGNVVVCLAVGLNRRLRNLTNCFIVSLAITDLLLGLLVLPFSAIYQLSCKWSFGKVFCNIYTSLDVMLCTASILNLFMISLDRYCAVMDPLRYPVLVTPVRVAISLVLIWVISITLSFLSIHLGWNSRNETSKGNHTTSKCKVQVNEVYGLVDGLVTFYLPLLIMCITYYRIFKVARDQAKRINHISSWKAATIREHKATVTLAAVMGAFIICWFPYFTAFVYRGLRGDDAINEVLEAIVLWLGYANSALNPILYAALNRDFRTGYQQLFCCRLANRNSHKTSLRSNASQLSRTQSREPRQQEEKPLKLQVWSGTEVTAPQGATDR

D3 dopamine receptor = biological target: T3, D3 dopamine receptor (Homo sapiens, UniProt P35462); experiment: as above; details: read-out: inhibition of binding at D3 dopamine receptor
T3 construct: NIMH Psychoactive Drug Screening program
T3 sequence (P35462 whole entry): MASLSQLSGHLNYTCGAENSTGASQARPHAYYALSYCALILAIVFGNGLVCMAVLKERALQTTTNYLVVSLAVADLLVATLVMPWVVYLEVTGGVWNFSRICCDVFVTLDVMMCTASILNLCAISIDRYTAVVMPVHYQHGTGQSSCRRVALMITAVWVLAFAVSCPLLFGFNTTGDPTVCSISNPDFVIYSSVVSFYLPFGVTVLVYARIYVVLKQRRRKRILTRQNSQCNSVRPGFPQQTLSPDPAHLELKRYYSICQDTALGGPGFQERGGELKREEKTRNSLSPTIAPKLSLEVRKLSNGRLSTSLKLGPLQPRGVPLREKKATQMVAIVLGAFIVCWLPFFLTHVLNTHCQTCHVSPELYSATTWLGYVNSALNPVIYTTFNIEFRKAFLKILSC

[3] = system: middle-aged mice after MCAo; details: dose 3 mg/kg; four weeks after MCAo; vs Veh; listed as MRS 4719, 3 mg/kg
[4] = system: mice, LAD ligation ischemia/reperfusion; experiment: Myocardial ischemia/reperfusion (LAD ligation), echocardiography; format: in vivo, mouse; details: 2 mg/kg/day s.c. minipump 3 days at reperfusion after 60 min LAD occlusion, 2 weeks or 4 weeks post-I/R, vs vehicle
[5] = system: C57B/6 mice, transient focal cerebral ischemia (MCAo); details: 1 mg/kg/day for 3 days from onset of acute stroke; previously shown; cited from earlier work
hP2X1R = biological target: T4, hP2X1R (Homo sapiens, UniProt P51575); experiment: cell-based; details: CHO-K1; percent inhibition at 30 μM; agonist α,β-MeATP 1.0 μM; read-out: hP2X1R % inhib.
T4 construct: expressed in transfected cells; host or cells: CHO-K1
T4 sequence (P51575 1-399): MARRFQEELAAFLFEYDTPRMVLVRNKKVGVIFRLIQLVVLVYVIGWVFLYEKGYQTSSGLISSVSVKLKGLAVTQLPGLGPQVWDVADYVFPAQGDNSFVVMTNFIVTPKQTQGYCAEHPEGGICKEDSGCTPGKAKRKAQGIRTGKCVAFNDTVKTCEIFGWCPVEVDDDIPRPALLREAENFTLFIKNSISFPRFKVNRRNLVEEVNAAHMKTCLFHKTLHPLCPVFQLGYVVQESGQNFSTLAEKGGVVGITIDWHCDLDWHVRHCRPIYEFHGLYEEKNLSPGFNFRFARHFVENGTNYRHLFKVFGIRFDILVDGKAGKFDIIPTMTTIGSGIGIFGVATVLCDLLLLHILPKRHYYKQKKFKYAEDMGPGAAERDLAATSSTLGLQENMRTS

hP2X3R = biological target: T5, hP2X3R (Homo sapiens, UniProt P56373); experiment: cell-based; format: cell-based; details: CHO-K1; percent inhibition at 30 μM; agonist α,β-MeATP 1.0 μM; read-out: hP2X3R % inhib.
T5 construct: expressed in transfected cells; host or cells: CHO-K1
T5 sequence (P56373 1-397): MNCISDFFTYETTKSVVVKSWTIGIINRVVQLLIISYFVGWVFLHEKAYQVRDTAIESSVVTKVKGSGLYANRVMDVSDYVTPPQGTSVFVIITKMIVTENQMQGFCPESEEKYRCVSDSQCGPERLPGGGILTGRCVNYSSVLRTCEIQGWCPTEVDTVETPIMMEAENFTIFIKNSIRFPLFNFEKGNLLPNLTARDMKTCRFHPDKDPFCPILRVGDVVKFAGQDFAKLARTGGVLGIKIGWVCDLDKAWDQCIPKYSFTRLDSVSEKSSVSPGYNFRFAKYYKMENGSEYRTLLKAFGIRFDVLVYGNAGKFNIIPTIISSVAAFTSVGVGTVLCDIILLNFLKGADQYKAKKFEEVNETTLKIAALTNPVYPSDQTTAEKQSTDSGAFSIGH

hP2X4R = biological target: T6, hP2X4R (Homo sapiens, UniProt Q99571); experiment: cell-based; format: cell-based
T6 construct: expressed in transfected cells; host or cells: HEK-293
T6 sequence (Q99571 1-388): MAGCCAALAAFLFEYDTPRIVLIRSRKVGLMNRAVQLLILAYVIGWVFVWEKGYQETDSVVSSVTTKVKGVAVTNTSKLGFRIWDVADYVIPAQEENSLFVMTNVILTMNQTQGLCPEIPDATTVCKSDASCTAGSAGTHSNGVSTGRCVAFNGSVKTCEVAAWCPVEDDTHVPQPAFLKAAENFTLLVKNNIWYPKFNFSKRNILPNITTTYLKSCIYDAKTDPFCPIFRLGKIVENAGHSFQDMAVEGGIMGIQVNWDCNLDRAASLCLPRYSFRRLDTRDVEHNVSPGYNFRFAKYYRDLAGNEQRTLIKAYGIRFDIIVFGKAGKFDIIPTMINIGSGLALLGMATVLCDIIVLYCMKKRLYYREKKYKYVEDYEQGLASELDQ

hP2X2/3R = biological target: T7, hP2X2/3R (Homo sapiens, UniProt P56373+Q9UBL9); experiment: cell-based; format: cell-based; details: CHO-K1; percent inhibition at 30 μM; agonist α,β-MeATP 5.0 μM; read-out: hP2X2/3R % inhib.
T7 construct: expressed in transfected cells; host or cells: CHO-K1
T7 sequence (Q9UBL9 1-471): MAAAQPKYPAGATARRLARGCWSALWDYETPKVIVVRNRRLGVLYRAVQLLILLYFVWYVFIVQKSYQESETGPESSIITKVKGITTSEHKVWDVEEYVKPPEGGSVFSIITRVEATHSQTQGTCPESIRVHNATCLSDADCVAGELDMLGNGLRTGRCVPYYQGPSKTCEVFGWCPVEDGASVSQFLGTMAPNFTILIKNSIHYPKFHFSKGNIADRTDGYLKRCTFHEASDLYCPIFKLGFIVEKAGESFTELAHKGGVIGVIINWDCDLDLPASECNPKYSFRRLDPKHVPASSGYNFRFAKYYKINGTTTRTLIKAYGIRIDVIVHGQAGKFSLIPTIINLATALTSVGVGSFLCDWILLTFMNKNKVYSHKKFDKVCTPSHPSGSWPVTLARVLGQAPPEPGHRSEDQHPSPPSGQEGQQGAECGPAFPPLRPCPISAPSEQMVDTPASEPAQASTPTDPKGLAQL
T7 sequence (P56373 1-397): T5 sequence (P56373 1-397)

O=C1CC(=O)N(c2cccc(-c3noc(=S)[nH]3)c2)c2cc(Br)c3ccccc3c2N1 [Compound 21d, 7-Bromo-5-(3-(5-thioxo-4,5-dihydro-1,2,4-oxadiazol-3-yl)phenyl)-1,5-dihydro-2H-naphtho[1,2-b][1,4]diazepine-2,4(3H)-dione triethylamine salt]
off-target interactions at 45 receptors, channels and transporters [1]: no significant interactions

Cc1ccc2c3c(ccc2c1)N(c1cccc(-c2noc(=S)[nH]2)c1)C(=O)CC(=O)N3 [Compound 21c, 9-Methyl-5-(3-(5-thioxo-4,5-dihydro-1,2,4-oxadiazol-3-yl)phenyl)-1,5-dihydro-2H-naphtho[1,2-b][1,4]diazepine-2,4(3H)-dione]
cortical infarct volume alone ([2]; 5 mg/kg/day): not statistically significant | striatal infarct volume alone ([2]; 5 mg/kg/day): not statistically significant | total hemispheric infarct volume ([2]; 5 mg/kg/day): moderate but significant decrease; also recorded: reduced total hemispheric infarct volume | off-target interactions at 45 receptors, channels and transporters [1]: no significant interactions

O=C1CC(=O)N(c2cccc(-c3noc(=S)[nH]3)c2)c2ccc3ccccc3c2N1.[Na] [Compound 22a, 5-(3-(5-Thioxo-4,5-dihydro-1,2,4-oxadiazol-3-yl)phenyl)-1,5-dihydro-2H-naphtho[1,2-b][1,4]diazepine-2,4(3H)-dione sodium salt]
off-target interactions at 45 receptors, channels and transporters [1]: no significant interactions | potency in blocking mP2X4R effects in vitro (mP2X4R): as potent in blocking mP2X4R effects in vitro as at hP2X4R | in vivo efficacy in the mouse (mouse): considerable in vivo efficacy

O=C1CC(=O)N(c2ccnc(-c3noc(=S)[nH]3)c2)c2ccc3ccccc3c2N1 [Compound 21u, 5-(2-(5-Thioxo-4,5-dihydro-1,2,4-oxadiazol-3-yl)pyridin-4-yl)-1,5-dihydro-2H-naphtho[1,2-b][1,4]diazepine-2,4(3H)-dione triethylamine salt]
cortical infarct volume [2]: significantly reduced | striatal infarct volume [2]: no statistically significant decrease | total hemispheric infarct volume [2]: significantly reduced | neuroprotection based on total hemispheric infarct volume size ([2]; 3 mg/kg): significant neuroprotection | inhibition at 10 µM (H2 histamine receptor): 89 ± 4% | inhibition at 10 µM (D3 dopamine receptor): 74 ± 10% | learning and memory, NORT [3]: significant retention of memory; also recorded: reached to statistical significance | decline in fractional shortening (FS) ([4]; listed as MRS 4719): less than those in vehicle-treated mice | decline in left ventricular ejection fraction (EF) ([4]; listed as MRS 4719): less than those in vehicle-treated mice | decline in fractional shortening (FS) ([4]; listed as MRS4719): lesser degree of decline | decline in left ventricular ejection fraction (EF) ([4]; listed as MRS4719): lesser degree of decline

O=C1CN=C(c2cccc(Br)c2)c2oc3ccccc3c2N1 [Compound 5-BDBD, 5-(3-bromophenyl)-1,3-dihydro-2H-benzofuro[3,2-e]-1,4-diazepin-2-one]
stroke infarct size [5]: reduced stroke infarct size

O=C1CC(=O)N(c2cncc(-c3noc(=S)[nH]3)c2)c2ccc3ccccc3c2N1 [Compound 21t, 5-(5-(5-Thioxo-4,5-dihydro-1,2,4-oxadiazol-3-yl)pyridin-3-yl)-1,5-dihydro-2H-naphtho[1,2-b][1,4]diazepine-2,4(3H)-dione triethylamine salt]
inhibition at 30 µM (hP2X1R): 15% | inhibition at 30 µM (hP2X3R): 6% | hP2X4R inhibitory activity relative to 22a, in words (hP2X4R): reduce | IC50 (hP2X4R; agonist CTP 10 μM (~EC80)): 14.6 µM | inhibition at 30 µM (hP2X2/3R): 25%
